Data: BindingDB's records for doi:10.1016/j.bmc.2010.01.055 (Chinese Academy of Sciences, 2010)

Biological target: Receptor-type tyrosine-protein phosphatase alpha (PTPRA) (Homo sapiens) (UniProt P18433)
Experiment: Inhibition of PTPalpha expressed in Escherichia coli BL21 (DE3) after 10 mins by spectrophotometry

Chain of Receptor-type tyrosine-protein phosphatase alpha (PTPRA) (Homo sapiens) (P18433 whole entry, looked up): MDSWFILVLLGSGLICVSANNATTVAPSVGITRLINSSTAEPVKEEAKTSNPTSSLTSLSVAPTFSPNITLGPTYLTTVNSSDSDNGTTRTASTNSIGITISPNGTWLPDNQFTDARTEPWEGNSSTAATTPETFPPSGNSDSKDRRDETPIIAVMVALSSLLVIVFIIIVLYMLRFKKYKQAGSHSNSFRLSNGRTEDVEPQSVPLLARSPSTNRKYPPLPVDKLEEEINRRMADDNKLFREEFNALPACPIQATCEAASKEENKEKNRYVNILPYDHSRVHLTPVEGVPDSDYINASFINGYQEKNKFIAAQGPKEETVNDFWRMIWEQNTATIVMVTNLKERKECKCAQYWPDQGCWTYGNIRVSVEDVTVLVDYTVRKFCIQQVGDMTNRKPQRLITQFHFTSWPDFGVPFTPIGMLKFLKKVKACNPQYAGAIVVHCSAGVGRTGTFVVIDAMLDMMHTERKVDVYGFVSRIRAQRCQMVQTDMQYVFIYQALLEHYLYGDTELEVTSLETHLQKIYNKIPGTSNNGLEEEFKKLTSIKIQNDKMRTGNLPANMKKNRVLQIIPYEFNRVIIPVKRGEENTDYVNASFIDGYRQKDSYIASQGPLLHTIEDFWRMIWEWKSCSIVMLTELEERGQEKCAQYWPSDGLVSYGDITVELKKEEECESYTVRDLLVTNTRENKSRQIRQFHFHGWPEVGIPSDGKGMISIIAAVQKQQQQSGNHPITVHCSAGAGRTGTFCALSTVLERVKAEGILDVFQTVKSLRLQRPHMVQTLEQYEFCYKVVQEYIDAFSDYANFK

Row | IC50 [µM] | SMILES
1 | 23.1 | CCOC(=O)c1c(-c2ccc(-c3ccc(F)c(Cl)c3)cc2)csc1NC(=O)c1ccccc1C(=O)O [2-(2-Carboxy-benzoylamino)-4-(30-chloro-40-fluorobiphenyl-4-yl)-thiophene-3-carboxylic acid ethyl ester]
2 | > 100 | CC(C)OC(=O)c1c(-c2ccc(-c3ccc(Cl)cc3)cc2)csc1NC(=O)C1C2C=CC(C2)C1C(=O)O (centres undefined) [2-[(3-Carboxy-bicyclo[2.2.1]hept-5-ene-2-carbonyl)-amino]-4-(4'-chloro-biphenyl-4-yl)-thiophene-3-carboxylicacid isopropyl ester]
3 | > 100 | CCc1oc2cc(S(=O)(=O)Nc3nccs3)ccc2c1C(=O)c1cc(Br)c(O)c(Br)c1 [3-(3,5-dibromo-4-hydroxybenzoyl)-2-ethyl-N-(thiazol-2-yl)benzofuran-6-sulfonamide]
4 | > 100 | CC(C)OC(=O)c1c(-c2ccc(-c3ccccc3)cc2)csc1NC(=O)C1C2C=CC(C2)C1C(=O)O (centres undefined) [4-Biphenyl-4-yl-2-[(3-carboxy-bicyclo[2.2.1]hept-5-ene-2-carbonyl)-amino]-thiophene-3-carboxylic acid isopropylester]
